Measurements taken from patent publication US20100210533A1, “USE OF UROCORTIN AND CORTICOTROPIN-RELEASING FACTOR AS THERAPEUTIC AGENTS” (priority 2007, published 2010).
No end group written: not given here.

How the values were obtained:
[1] = test system: HIV-1IIIB; test: HIV-1 antiviral assay in CEM-SS cells (MTS readout); format: cell-based
[2] = test system: HCMV strain AD169; test: HCMV plaque assay in MRC-5 cells; conditions: for inhibition of HCMV plaque formation as compared to the virus control experiment: 10 micrograms per ml, 7-10 days
[3] = test system: Primary Human endothelial cells (HUVEC); test: Endothelial cell migration assay; format: cell-based; conditions: 10 micrograms per ml, 22 hours
[4] = test system: RAW 264.7 cells; test: Phagocytosis assay (Fluorescein-labeled Escherichia coli, flow cytometry); format: cell-based, mouse; conditions: 10 micrograms per ml, 30 min preincubation, 60 min ingestion
[5] = test system: hepatitis B virus (HBV) ayw strain; test: HBV experimental assay system, HepG2-2.2.15, TaqMan PCR of secreted HBV DNA; format: cell-based; conditions: 10 micrograms per ml, six days, HBV DNA by TaqMan PCR
Source text: HepG2-2.2.15 is a stable cell line containing the hepatitis B virus (HBV) ayw strain genome (ATCC Cat. No. CRL-11997). Antiviral compounds blocking any late step of viral replication such as transcription, translation, pregenome encapsidation, reverse transcription, particle assembly and release can be identified and characterized using this cell line. In this assay, an active compound will reduce the production of secreted HBV from cells, measured by utilizing real time quantitative PCR (TaqMan) assay to directly and accurately measure HBV DNA copies.
HepG2-2.2.15 cells were plated in 96-well microtiter plates. After 16-24 hours the confluent monolayer of HepG2-2.2.15 cells was washed and the medium was replaced with complete medium containing test peptides—10 micrograms per ml—in duplicate. […] Six days following the initial administration of the peptides, the cell culture supernatants was collected, treated with pronase and DNAse and then used in a real-time quantitative TaqMan PCR assay. The PCR-amplified HBV DNA was detected in real-time by monitoring increases in fluorescence signals that result from the exonucleolytic degradation of a quenched fluorescence probe molecule that hybridizes to the mplified HBV DNA. […] Antiviral activity was calculated from the reduction in HBV DNA levels (% virus control). […]

[6] = test system: spleen cells; test: Th1/Th2 cytokine profiling assay (Ovalbumin-restimulated spleen cells, CBA kit); format: cell-based; conditions: 10 micrograms per ml; spleen cells of Ovalbumin-immunized Balb/c mice, restimulated with Ovalbumin 10 micrograms/ml; 72 hours

Molecule	antiviral activity of positive control compounds (HIV-1) [1]	antiviral activity of positive control compound (HCMV) ([2]; positive control, HCMV AD169)	inhibition of the tube formation of human endothelial cells (results given under Example 14, Endothelial Cell Migration Assay) [3]	inhibition of HCMV plaque formation as compared to the virus control experiment [2]	effect (increase) on the phagocytic activity of murine macrophages [4]	inhibition of HBV replication as compared to the virus control infection [5] [%]	IFNγ spleen cells; TH1 response (% of control) [6]	IL-2 spleen cells (% of control) [6]	IL-4 spleen cells; TH2 response (% of control) [6]	IL-5 spleen cells; TH2 response (% of control) [6]	TNF-a spleen cells; TH1 response (% of control) [6]
Cc1cn([C@H]2C[C@H](N=[N+]=[N-])[C@@H](CO)O2)c(=O)[nH]c1=O [AZT]	expected levels of antiviral activity	–	–	–	–	–	–	–	–	–	–
Nc1nc(O)c2ncn(COC(CO)CO)c2n1 [Ganciclovir, reference compound]	–	expected levels of antiviral activity	–	–	–	–	–	–	–	–	–
CC(C)(C)NC(=O)[C@@H]1CN(Cc2cccnc2)CCN1C[C@@H](O)C[C@@H](Cc1ccccc1)C(=O)N[C@H]1c2ccccc2C[C@H]1O [indinavir]	expected levels of antiviral activity	–	–	–	–	–	–	–	–	–	–
Asp-Asn-Pro-Ser-Leu-Ser-Ile-Asp-Leu-Thr-Phe-His-Leu-Leu-Arg-Thr-Leu-Leu-Glu-Leu-Ala-Arg-Thr-Gln-Ser-Gln-Arg-Glu-Arg-Ala-Glu-Gln-Asn-Arg- Ile-Ile-Phe-Asp-Ser-Val-NH2 (DNPSLSIDLTFHLLRTLLELARTQSQRERAEQNRIIFDSV-NH2) [Peptide 1, Urocortin; commercially available known peptide]	–	–	39%	did not inhibit	no inhibitory or activating effects	63.0	29.0 % of control	168.1 % of control	111.6 % of control	68.0 % of control	84.8 % of control
Ser-Glu-Glu-Pro-Pro-Ile-Ser-Leu-Asp-Leu-Thr-Phe-His-Leu-Leu-Arg-Glu-Val-Leu-Glu-Met-Ala-Arg-Ala-Glu-Gln-Leu-Ala-Gln-Gln-Ala-His-Ser-Asn- Arg-Lys-Leu-Met-Glu-Ile-Ile-NH2 (SEEPPISLDLTFHLLREVLEMARAEQLAQQAHSNRKLMEII-NH2) [Peptide 2, Corticotropin-Releasing Factor; commercially available known peptide]	–	–	did not inhibit	did not inhibit	34.3%	57.2	144.1 % of control	166.5 % of control	178.1 % of control	7.0 % of control	138.1 % of control
